Test results: PubChem BioAssay AID248 (DTP/NCI, 2004)
Several values for one entry are separate records, joined by “and”; a condition that tells them apart may be missing. Identical values can stand only once. Inconclusive results and toxic doses are left out. Rule as the data show it: active = T/C of 150% or more; inactive = T/C below 125%.

Test system: L1210 leukemia ip in BDF1 mice, survival T/C
Assay: NCI In Vivo Anticancer Drug Screen. Data for tumor model L1210 Leukemia (intraperitoneal) in B6D2F1 (BDF1) mice
Details: endpoint: mean survival time, higher = longer survival
Method in brief: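 Mice bearing the transplanted tumor received compound or vehicle. Survival of the treated group was divided by that of the vehicle-treated control group to give the ratio.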

[1] = dose: 100.0 mg/kg/injection, schedule: Q01DX001 (ip), vehicle: saline
[2] = dose: 100.0 mg/kg/injection, schedule: Q04DX003 (ip), vehicle: saline with Tween-80
[3] = dose: 200.0 mg/kg/injection, schedule: Q04DX003 (ip), vehicle: saline with Tween-80
[4] = dose: 100.0 mg/kg/injection, schedule: Q01DX001 (ip), vehicle: Klucel (hydroxypropylcellulose) (HPC)
[5] = dose: 200.0 mg/kg/injection, schedule: Q01DX001 (ip), vehicle: Klucel (hydroxypropylcellulose) (HPC)
[6] = dose: 100.0 mg/kg/injection, schedule: Q01DX009 (ip), vehicle: saline with Tween-80
[7] = dose: 200.0 mg/kg/injection, schedule: Q01DX009 (ip), vehicle: saline with Tween-80
[8] = dose: 50.0 mg/kg/injection, schedule: Q01DX009 (ip), vehicle: saline with Tween-80
[9] = dose: 50.0 mg/kg/injection, schedule: Q01DX001 (ip), vehicle: saline
[10] = dose: 200.0 mg/kg/injection, schedule: Q01DX001 (ip), vehicle: saline
[11] = dose: 400.0 mg/kg/injection, schedule: Q01DX001 (ip), vehicle: saline

Measured: T/C

C=COC(=O)NC(C(=O)O)C(C)C (centres undefined)
inactive: [1] 96 % of control

COC(=O)c1cc(C)n(C)c(=O)c1CNC(=O)c1ccccc1
inactive: dose: 100.0 mg/kg/injection, schedule: Q01DX009 (ip), vehicle: saline 97 % of control | dose: 100.0 mg/kg/injection, schedule: Q04DX003 (ip), vehicle: saline 107 % of control | dose: 200.0 mg/kg/injection, schedule: Q01DX009 (ip), vehicle: saline 96 % of control | dose: 200.0 mg/kg/injection, schedule: Q04DX003 (ip), vehicle: saline 97 % of control | dose: 400.0 mg/kg/injection, schedule: Q01DX009 (ip), vehicle: saline 97 % of control | dose: 400.0 mg/kg/injection, schedule: Q04DX003 (ip), vehicle: saline 91 % of control

CCCCCCCC/C=C\CCCCCCCCOC(N)=O
inactive: dose: 50.0 mg/kg/injection, schedule: Q01DX009 (ip), vehicle: other 96 % of control | dose: 100.0 mg/kg/injection, schedule: Q01DX009 (ip), vehicle: other 94 % of control | [2] 100 % of control | dose: 200.0 mg/kg/injection, schedule: Q01DX009 (ip), vehicle: other 89 % of control | [3] 95 % of control

CCCCCCCCCCC(=O)O
inactive: [4] 105 % of control | [5] 105 % of control | dose: 300.0 mg/kg/injection, schedule: Q01DX001 (ip), vehicle: Klucel (hydroxypropylcellulose) (HPC) 101 % of control

COc1cc(/C=N\NC(=O)CNC(=O)Nc2cccc(Cl)c2)ccc1O
inactive: [6] 90 % of control | [7] 87 % of control

NC(=O)C(NC(=O)c1ccccc1)Sc1ccccc1 (centres undefined)
inactive: dose: 50.0 mg/kg/injection, schedule: Q01DX001 (ip), vehicle: Klucel (hydroxypropylcellulose) (HPC) 100 % of control | [4] 100 % of control | [5] 96 % of control

C=CC[P+](Cc1cccc(C)c1)(c1ccccc1)c1ccccc1
inactive: dose: 6.25 mg/kg/injection, schedule: Q01DX009 (ip), vehicle: saline with Tween-80 107 % of control | dose: 12.5 mg/kg/injection, schedule: Q01DX009 (ip), vehicle: saline with Tween-80 115 % of control

CC(C)OC(=O)c1ccc(N)cc1S(N)(=O)=O
inactive: dose: 100.0 mg/kg/injection, schedule: Q01DX001 (ip), vehicle: other 106 % of control

Cc1c(Cl)cccc1NC(=O)CCl
inactive: [6] 97 % of control | [7] 103 % of control

CNCCOc1ccccc1
inactive: [8] 105 % of control | [6] 101 % of control | [2] 107 % of control | [3] 93 % of control

COc1ccc(C2OCC(CCl)O2)cc1 (centres undefined)
inactive: dose: 55.0 mg/kg/injection, schedule: Q01DX Z (ip), vehicle: methylcellulose (MC) 109 % of control | dose: 83.0 mg/kg/injection, schedule: Q01DX Z (ip), vehicle: methylcellulose (MC) 103 % of control | dose: 125.0 mg/kg/injection, schedule: Q01DX Z (ip), vehicle: methylcellulose (MC) 101 % of control

CSc1ccc(OC(=O)Nc2cccc(Cl)c2)cc1
inactive: dose: 100.0 mg/kg/injection, schedule: Q04DX002 (ip), vehicle: saline with Tween-80 100 % of control | dose: 200.0 mg/kg/injection, schedule: Q04DX002 (ip), vehicle: saline with Tween-80 93 % of control | dose: 400.0 mg/kg/injection, schedule: Q04DX002 (ip), vehicle: saline with Tween-80 104 % of control

O=C1CSC(c2ccccc2)N1c1ccccc1 (centres undefined)
inactive: [9] 106 % of control | [1] 118 % of control | [10] 108 % of control | [11] 100 % of control

CC(C)=C1CCC(C)C/C1=N\N=C(N)N (centres undefined)
inactive: dose: 15.0 mg/kg/injection, schedule: Q01DX Z (ip), vehicle: carboxymethylcellulose (CMC) 100 % of control | dose: 30.0 mg/kg/injection, schedule: Q01DX Z (ip), vehicle: carboxymethylcellulose (CMC) 106 % of control | dose: 60.0 mg/kg/injection, schedule: Q01DX Z (ip), vehicle: carboxymethylcellulose (CMC) 89 % of control | dose: 120.0 mg/kg/injection, schedule: Q01DX Z (oral), vehicle: carboxymethylcellulose (CMC) 97 % of control | dose: 240.0 mg/kg/injection, schedule: Q01DX Z (oral), vehicle: carboxymethylcellulose (CMC) 97 % of control | dose: 480.0 mg/kg/injection, schedule: Q01DX Z (oral), vehicle: carboxymethylcellulose (CMC) 101 % of control

CC(=O)OCc1c(O)c2c(c(O)c1COC(C)=O)C(=O)C=CC2=O
inactive: dose: 2.0 mg/kg/injection, schedule: Q01DX009 (ip), vehicle: saline 96 % of control | dose: 4.0 mg/kg/injection, schedule: Q01DX009 (ip), vehicle: saline 96 % of control | dose: 8.0 mg/kg/injection, schedule: Q01DX009 (ip), vehicle: saline 88 % of control | dose: 16.0 mg/kg/injection, schedule: Q01DX009 (ip), vehicle: saline 91 % of control

CCCCOCc1c(CO)cnc(C)c1O
inactive: dose: 25.0 mg/kg/injection, schedule: Q04DX002 (ip), vehicle: saline 99 % of control | dose: 50.0 mg/kg/injection, schedule: Q04DX002 (ip), vehicle: saline 96 % of control | dose: 100.0 mg/kg/injection, schedule: Q04DX002 (ip), vehicle: saline 93 % of control and 96 % of control

O=C(CCCCOc1ccc([N+](=O)[O-])cc1Cl)Nc1ccc(S(=O)(=O)F)cc1
inactive: dose: 100.0 mg/kg/injection, schedule: Q04DX003 (ip), vehicle: Klucel (hydroxypropylcellulose) (HPC) 97 % of control | dose: 200.0 mg/kg/injection, schedule: Q04DX003 (ip), vehicle: Klucel (hydroxypropylcellulose) (HPC) 90 % of control | dose: 400.0 mg/kg/injection, schedule: Q04DX003 (ip), vehicle: Klucel (hydroxypropylcellulose) (HPC) 90 % of control

Cc1nccn1-c1ccc(N=Cc2ccc(N(CCCl)CCCl)cc2Cl)cc1
inactive: dose: 62.5 mg/kg/injection, schedule: Q04DX002 (ip), vehicle: Klucel (hydroxypropylcellulose) (HPC) 102 % of control | dose: 125.0 mg/kg/injection, schedule: Q04DX002 (ip), vehicle: Klucel (hydroxypropylcellulose) (HPC) 98 % of control | dose: 250.0 mg/kg/injection, schedule: Q04DX002 (ip), vehicle: Klucel (hydroxypropylcellulose) (HPC) 106 % of control

NC(=S)N/N=C\c1csc2ccccc12
inactive: dose: 100.0 mg/kg/injection, schedule: Q01DX001 (ip), vehicle: carboxymethylcellulose (CMC) 92 % of control | [1] 96 % of control | dose: 200.0 mg/kg/injection, schedule: Q01DX001 (ip), vehicle: carboxymethylcellulose (CMC) 92 % of control | [10] 107 % of control | dose: 400.0 mg/kg/injection, schedule: Q01DX001 (ip), vehicle: carboxymethylcellulose (CMC) 95 % of control | [11] 94 % of control

OCC(O)C(O)C(O)C(c1ccccc1)c1ccccc1 (centres undefined)
inactive: [9] 107 % of control | [1] 98 % of control | [10] 96 % of control | [11] 98 % of control

CN=C(c1ccc(NC(=O)c2ccc(C(=O)Nc3ccc(C(=NC)N4CCCC4)cc3)cc2)cc1)N1CCCC1
inactive: dose: 0.5 mg/kg/injection, schedule: Q01DX Z (ip), vehicle: water 96 % of control | dose: 1.0 mg/kg/injection, schedule: Q01DX Z (ip), vehicle: water 96 % of control

CC1(C)OCC(CO)([N+](=O)[O-])CO1
inactive: dose: 12.5 mg/kg/injection, schedule: Q04DX003 (ip), vehicle: saline with Tween-80 92 % of control | dose: 25.0 mg/kg/injection, schedule: Q01DX009 (ip), vehicle: saline with Tween-80 108 % of control | dose: 25.0 mg/kg/injection, schedule: Q04DX003 (ip), vehicle: saline with Tween-80 93 % of control | [8] 108 % of control | dose: 50.0 mg/kg/injection, schedule: Q04DX003 (ip), vehicle: saline with Tween-80 95 % of control | [6] 108 % of control | [2] 100 % of control | dose: 150.0 mg/kg/injection, schedule: Q04DX003 (ip), vehicle: saline with Tween-80 94 % of control

CCOC(=O)C(c1ccccc1)(c1ccccc1)c1ccccc1
inactive: dose: 6.25 mg/kg/injection, schedule: Q01DX009 (ip), vehicle: Klucel (hydroxypropylcellulose) (HPC) 90 % of control | dose: 12.5 mg/kg/injection, schedule: Q01DX009 (ip), vehicle: Klucel (hydroxypropylcellulose) (HPC) 92 % of control | dose: 25.0 mg/kg/injection, schedule: Q01DX009 (ip), vehicle: Klucel (hydroxypropylcellulose) (HPC) 95 % of control

COc1ccc(C)cc1NC(=O)Nc1ccccc1C(F)(F)F
inactive: dose: 100.0 mg/kg/injection, schedule: Q01DX009 (ip), vehicle: Klucel (hydroxypropylcellulose) (HPC) 89 % of control | dose: 200.0 mg/kg/injection, schedule: Q01DX009 (ip), vehicle: Klucel (hydroxypropylcellulose) (HPC) 91 % of control | dose: 400.0 mg/kg/injection, schedule: Q01DX009 (ip), vehicle: Klucel (hydroxypropylcellulose) (HPC) 100 % of control
